Experimental data: patent publication US6737383B1, “Herbicidal oxadiazolidines” (priority 1999, dated 2004)

Tests used:
duck salad = test: Test B flood test duck salad; type: in vivo, Heteranthera limosa
Method in brief: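 Flood test on plants grown to the 2-leaf stage; treated plants kept in greenhouse twelve to sixteen days, then visually rated against controls on a 0 (no effect) to 10 (complete control) scale.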

crabgrass = test: Test B pre/postemergence crabgrass; type: in vivo, Digitaria sanguinalis; conditions: for Crabgrass plant response rating (0 to 10 scale): 0 is no effect
Method in brief: (§1)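 Response is a visual 0-to-10 score relative to untreated plants, where 0 means no effect and 10 means complete control, taken twelve to sixteen days after application. Treatments went onto soil at planting and onto foliage of 1- to 4-leaf plants, using a surfactant-containing non-phytotoxic solvent.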

giant foxtail = test: Test B pre/postemergence giant foxtail; type: in vivo, Setaria faberii; conditions: for Giant foxtail plant response rating (0 to 10 scale): 0 is no effect
Method in brief: as §1

wheat = test: Test B pre/postemergence wheat; type: in vivo, Triticum aestivum
Method in brief: as §1

[1] = Postemergence, Rate 125 g/ha, scale of 0 to 10 where 0 is no effect and 10 is complete control
[2] = Preemergence, Rate 62 g/ha, scale of 0 to 10 where 0 is no effect and 10 is complete control
[3] = Preemergence, Rate 125 g/ha, 10 is complete control
[4] = Preemergence, Rate 250 g/ha, scale 0 to 10, 0 is no effect, 10 is complete control
[5] = Preemergence, Rate 500 g/ha, scale 0 to 10 (0 no effect, 10 complete control)
[6] = Rate 62 g/ha, Postemergence, scale of 0 to 10 where 0 is no effect and 10 is complete control
[7] = Rate 250 g/ha, Postemergence, scale 0 to 10, 0 is no effect, 10 is complete control
[8] = Rate 500 g/ha, Postemergence, scale 0 to 10
[9] = Rate 125 g/ha, Postemergence, scale 0 to 10

CC(C)N(C(=O)n1oc(=O)n(-c2nc(Cl)sc2Cl)c1=O)c1ccc(F)cc1 [Compound 160]
0: Ducksalad plant response rating (duck salad; Postemergence (flood test species), Rate 125 g/ha, scale of 0 to 10 where 0 is no effect and 10 is complete control) | Ducksalad plant response rating (duck salad; Rate 62 g/ha, Postemergence section, flood test species, scale of 0 to 10 where 0 is no effect and 10 is complete control) | Plant response rating, Ducksalad (duck salad; Rate 250 g/ha, Postemergence (flood test), scale 0 to 10, 0 is no effect, 10 is complete control) | Ducksalad plant response rating (duck salad; Rate 500 g/ha, listed under Postemergence (flood test species), scale 0 to 10) | Crabgrass plant response rating (crabgrass; [1]) | Crabgrass plant response rating (crabgrass; [2]) | Crabgrass plant response rating (0 to 10 scale) (crabgrass; [3]) | Crabgrass plant response rating (crabgrass; [4]) | Crabgrass plant response rating (crabgrass; [5]) | Crabgrass plant response rating (crabgrass; [6]) | Plant response rating, Crabgrass (crabgrass; [7]) | Crabgrass plant response rating (crabgrass; [8]) | Giant foxtail plant response rating (giant foxtail; [1]) | Giant foxtail plant response rating (giant foxtail; [2]) | Giant foxtail plant response rating (0 to 10 scale) (giant foxtail; [3]) | Giant foxtail plant response rating (giant foxtail; [4]) | Giant foxtail plant response rating (giant foxtail; [5]) | Giant foxtail plant response rating (giant foxtail; [6]) | Plant response rating, Giant foxtail (giant foxtail; [7]) | Giant foxtail plant response rating (giant foxtail; [8]) | Wheat plant response rating (wheat; [2]) | Wheat plant response rating (0 to 10 scale) (wheat; Preemergence, Rate 125 g/ha, 0 is no effect, 10 is complete control) | Wheat plant response rating (wheat; [4]) | Wheat plant response rating (wheat; [5]) | Plant response rating, Wheat (wheat; [7]) | Wheat plant response rating (wheat; [8])

Cc1ccccc1-n1c(=O)on(C(=O)N(c2ccc(-c3ccccc3)cc2)C(C)C)c1=O [Compound 187]
0: Ducksalad plant response rating (duck salad; Rate 62 g/ha, headed Pre-emergence (flood test species), scale 0 to 10 (0 no effect, 10 complete control)) | Ducksalad plant response rating (duck salad; Rate 125 g/ha, Pre-emergence, flood test species, scale 0 to 10 where 0 is no effect and 10 is complete control) | Ducksalad plant response rating (duck salad; Rate 250 g/ha, Pre-emergence, flood-test species, scale 0 to 10, 0 is no effect, 10 is complete control) | Plant response rating, Ducksalad (duck salad; Rate 500 g/ha, headed Pre-emergence (flood test species), scale 0 to 10 (0 no effect, 10 complete control)) | Crabgrass plant response rating (crabgrass; [2]) | Crabgrass plant response rating (0 to 10 scale) (crabgrass; [3]) | Crabgrass plant response rating (crabgrass; [4]) | Crabgrass plant response rating (crabgrass; [5]) | Crabgrass plant response rating (crabgrass; [6]) | Crabgrass plant response rating (crabgrass; [9]) | Plant response rating (0 to 10; 0 is no effect, 10 is complete control), Crabgrass (crabgrass; Rate 250 g/ha, Postemergence) | Crabgrass plant response rating (crabgrass; [8]) | Giant foxtail plant response rating (giant foxtail; [2]) | Giant foxtail plant response rating (0 to 10 scale) (giant foxtail; [3]) | Giant foxtail plant response rating (giant foxtail; [4]) | Giant foxtail plant response rating (giant foxtail; [5]) | Giant foxtail plant response rating (giant foxtail; [6]) | Giant foxtail plant response rating (giant foxtail; [9]) | Plant response rating (0 to 10; 0 is no effect, 10 is complete control), Giant foxtail (giant foxtail; Rate 250 g/ha, Postemergence) | Giant foxtail plant response rating (giant foxtail; [8]) | Wheat plant response rating (wheat; [2]) | Wheat plant response rating (wheat; [4]) | Wheat plant response rating (wheat; [5]) | Wheat plant response rating (wheat; [6]) | Wheat plant response rating (wheat; [9]) | Plant response rating (0 to 10; 0 is no effect, 10 is complete control), Wheat (wheat; Rate 250 g/ha, Postemergence)
